Measured values: patent publication US20030083501A1, “Process for preparing paroxetine HCl which limits formation of pink colored compounds” (priority 2001, published 2003)
Structures can show the parent of a compound that is named as a salt.

Experiments:
Assay type in all cases: physicochemical
[1] = Visual analysis of the colour of a paroxetine HCl solution; settings: 2 mg/ml paroxetine HCl in 0.05M di-Potassium hydrogen phosphate buffer and 35% acetonitrile, standing 20 minutes
Procedure: One visual analysis can be carried out by preparing a solution of about 2 mg/ml of paroxetine HCl prepared in a mixture of about 0.05M di-Potassium hydrogen phosphate buffer and about 35% of acetonitrile. […] Preferably, the solution of the paroxetine HCl of the present invention is color free for at least about 20 minutes. On the other hand, available commercial products usually produce a pink colored solution under similar conditions. To test the purity of the final product, a 2 mg/ml solution of paroxetine HCl was prepared in a mixture of 0.05M di-Potassium hydrogen phosphate buffer and 35% of acetonitrile.

[2] = HPLC content of the impurity at RRT about 1.5 after storage; settings: storage for 4 days at 55° C., UV 285 nm, b52 gives such levels as HPLC area percentage, HCl
Description: Without being bound by theory, it is believed that impurities in paroxetine hydrochloride play a role in the color change to pink. The level of the impurities in paroxetine that are associated with a color change to pink can be analyzed in two different manners. One approach is a simple visual analysis, i.e., observing if a sample of paroxetine HCl has turned pink. Another approach is to measure the degree of an impurity identified by a high pressure liquid chromatography (“HPLC”) relative retention time (“RRT”) of about 1.5. The different UV-spectrum characteristic of this impurity has linked the impurity to the development of a pink color. […] Purification steps to remove this impurity such as by crystallization, extraction, chromatography or other separation procedures are often ineffective. The paroxetine hydrochloride of the present process is substantially free of impurities associated with a color change to pink, and is less susceptible, if at all, to develop a pink color overtime These impurities include the impurity identified by an HPLC RRT of about 1.5. Retention time refers to the time required for a compound to pass from the point of injection to the detector. […] Detected by U.V. spectroscopy at λ=285 nm.

[3] = Visual analysis of the colour of solid paroxetine HCl during storage; settings: storage for at least one month at 55° C.
Procedure: Another visual analysis can be carried out by observing the color of paroxetine hydrochloride during storage. Preferably, the paroxetine HCl of the present invention is substantially free compounds associated with a pink color for at least four days at a temperature of about 55° C. and a relative humidity of about 60-80%. One of skill in the art can appreciate that the level of the compounds associated with a pink color can vary according to the temperature and other conditions used for storage.
Paroxetine HCl (approximately 4 grams) was dissolved in toluene(40 ml) at reflux. Ascorbic acid (40 mg) and active carbon SX1 (200 mg) were added to the solution and stirred for 5-10 minutes. The solution was then filtered. The filtrate was cooled to 2-4° C., stirred for approximately 1 hour and filtered again to separate a formed precipitate. The solid precipitate was washed with toluene (4 ml) and dried at a temperature of 60° C. under vacuum to give white (color-free) product (3.4 grams). The product was color-free during storage for at least one month at a temperature of 55° C., and yielded solutions (carried out in the same manner as example 1) that were also color-free.

Structure (SMILES)	development of a pink color in solution [1]	content of the impurity at RRT about 1.5 after storage [2]	color of the product during storage [3]
Fc1ccc([C@@H]2CCNC[C@H]2COc2ccc3c(c2)OCO3)cc1 [Example 1, paroxetine HCl]	did not develop a pink color		
Fc1ccc([C@@H]2CCNC[C@H]2COc2ccc3c(c2)OCO3)cc1 [Example 2, paroxetine HCl]		0.02	
Fc1ccc([C@@H]2CCNC[C@H]2COc2ccc3c(c2)OCO3)cc1 [Example 3, paroxetine HCl]		0.23	
Fc1ccc([C@@H]2CCNC[C@H]2COc2ccc3c(c2)OCO3)cc1 [Example 5, Paroxetine HCl]	color-free		color-free
